Values joined by “and” are separate entries in the source; they are usually repeats but may differ in a detail not shown here. Identical values can stand only once. Like-named read-outs stand apart in the source and are kept apart here.
Key:
[1] = target: T1, rat GPR40 (Rattus norvegicus, UniProt Q8K3T4); test: Rat GPR40 IP1 accumulation assay; type: cell-based
T1 construct: expressed in transfected cells; host or cells: CHO-K1 (methods)
Summary of the method: (§1)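 IP1 accumulation is measured by HTRF after 60 min compound stimulation at room temperature in LiCl (50 mM)-containing buffer. Compounds run in ½-log dilutions from a final top concentration of 10 μM or 1 μM. Cells are hGPR40/HEK293, mGPR40/CHO-K1 and rGPR40/CHO-K1. Activity is scaled between DMSO and a partial allosteric agonist and fitted to a 4-parameter curve for EC50 and maximum.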

[2] = target: T2, human GPR40 (Homo sapiens, UniProt O14842); test: Human GPR40 IP1 accumulation assay; type: cell-based; set-up: expressed in transfected cells
T2 sequence (O14842 whole entry): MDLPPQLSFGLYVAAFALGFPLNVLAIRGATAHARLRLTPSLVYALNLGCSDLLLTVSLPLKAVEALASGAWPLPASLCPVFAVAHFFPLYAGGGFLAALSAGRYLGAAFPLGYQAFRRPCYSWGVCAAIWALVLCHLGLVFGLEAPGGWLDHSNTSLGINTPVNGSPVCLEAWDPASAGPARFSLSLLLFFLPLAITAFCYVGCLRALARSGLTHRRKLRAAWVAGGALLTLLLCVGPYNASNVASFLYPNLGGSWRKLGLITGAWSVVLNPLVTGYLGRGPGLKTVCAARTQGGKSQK
Summary of the method: as §1

[3] = target: T3, mouse GPR40 (Mus musculus, UniProt Q76JU9); test: Mouse GPR40 IP1 accumulation assay; type: cell-based
T3 construct: expressed in transfected cells; host or cells: CHO-K1 (methods)
T3 sequence (Q76JU9 whole entry): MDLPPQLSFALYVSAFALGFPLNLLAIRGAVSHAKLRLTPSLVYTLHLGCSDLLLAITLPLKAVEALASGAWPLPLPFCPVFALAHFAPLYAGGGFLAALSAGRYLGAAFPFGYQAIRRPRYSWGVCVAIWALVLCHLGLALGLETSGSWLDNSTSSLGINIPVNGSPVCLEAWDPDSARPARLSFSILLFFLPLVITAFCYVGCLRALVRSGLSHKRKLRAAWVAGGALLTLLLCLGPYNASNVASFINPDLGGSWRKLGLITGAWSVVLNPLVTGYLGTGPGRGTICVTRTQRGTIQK
Summary of the method: as §1

[4] = target: T2, human GPR40; test: GPR40 binding assay, partial agonist tracer [3H]L358; set-up: expressed in transfected cells; host or cells: CHO / CHO-K1 cells, membrane preparation;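 for %Bound: 100% is tracer binding with DMSO alone and 0% is full displacement by a standard compound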
Summary of the method: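 Affinity at two allosterically coupled GPR40 sites was probed by displacement or enhancement of radiotracer: the partial agonist [3H]L358 and the AgoPAM [3H]25. Human GPR40 CHO-cell membranes (5 μg/well) on WGA SPA beads were incubated with compound and tracer at room temperature, then counted. Outputs: IC50 and maximal % bound.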

[5] = maximal % activity vs in-house partial agonist control
[6] = radioligand L-001533358, dose 0.318285 nM
[7] = radioligand L-001533358, dose 1.00578 nM
[8] = radioligand L-001533358, dose 3.17827 nM
[9] = radioligand L-001533358, dose 10.0433 nM
[10] = radioligand L-001533358, dose 31.7369 nM
[11] = radioligand L-001533358, dose 100.289 nM
[12] = radioligand L-001533358, dose 316.912 nM
[13] = radioligand L-001533358, dose 1001.44 nM
[14] = radioligand L-001533358, dose 3164.56 nM
[15] = radioligand L-001533358, dose 10000 nM

T1 sequence (Q8K3T4 whole entry): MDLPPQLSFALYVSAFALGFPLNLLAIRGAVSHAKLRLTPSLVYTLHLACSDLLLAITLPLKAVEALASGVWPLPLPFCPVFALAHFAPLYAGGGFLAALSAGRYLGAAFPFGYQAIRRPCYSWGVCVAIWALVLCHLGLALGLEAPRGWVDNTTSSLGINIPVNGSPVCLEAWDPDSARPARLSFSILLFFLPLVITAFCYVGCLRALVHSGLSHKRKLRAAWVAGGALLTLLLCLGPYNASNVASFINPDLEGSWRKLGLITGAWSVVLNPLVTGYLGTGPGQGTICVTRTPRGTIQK

Structure (SMILES): Cc1cc(OCCCS(C)(=O)=O)cc(C)c1-c1cccc(COc2ccc3c(c2)OC[C@H]3CC(=O)O)c1 [TAK-875, reference compound]
- Rat GPR40 Receptor Activation (%) ([1]; dose 1.20E-10 M): -1.85%
- Rat GPR40 Receptor Activation (%) ([1]; dose 1.99E-06 M): 186%
- Rat GPR40 Receptor Activation (%) ([1]; dose 1.99E-07 M): 172%
- Rat GPR40 Receptor Activation (%) ([1]; dose 1.99E-08 M): 148%
- Rat GPR40 Receptor Activation (%) ([1]; dose 2.00E-09 M): 65%
- Rat GPR40 Receptor Activation (%) ([1]; dose 5.98E-07 M): 173%
- Rat GPR40 Receptor Activation (%) ([1]; dose 5.98E-08 M): 144%
- Rat GPR40 Receptor Activation (%) ([1]; dose 5.99E-09 M): 117%
- Rat GPR40 Receptor Activation (%) ([1]; dose 5.99E-10 M): 23%
- Rat GPR40 Functional Assay %Act ([1]; individual replicates (n)): 129% and 176% and 138% and 164% and 159% and 199% and 148% and 141% and 177% and 150%
- EC50 ([1]; individual replicates (n), read-out: Rat GPR40 Functional Assay EC50): 5.5 nM and 6.1 nM and 8.7 nM and 9.9 nM and 11.6 nM and 12.4 nM and 13.4 nM and 3.2 nM and 2.7 nM and 4.1 nM
- Efficacy (% Activation), Rat [1, 5]: (158%)
- EC50 ([1]; mean ± SD, n = 2–20, IP accumulation, read-out: Potency [EC50, nM] ± SD, Rat): 7.8 ± 4 nM
- Human GPR40 Receptor Activation (%) ([2]; dose 2.00E-06 M): 100%
- Human GPR40 Receptor Activation (%) ([2]; dose 2.00E-07 M): 90%
- Human GPR40 Receptor Activation (%) ([2]; dose 2.00E-08 M): 81%
- Human GPR40 Receptor Activation (%) ([2]; dose 2.00E-09 M): 31%
- Human GPR40 Receptor Activation (%) ([2]; dose 2.00E-10 M): -1.34%
- Human GPR40 Receptor Activation (%) ([2]; dose 6.00E-07 M): 95%
- Human GPR40 Receptor Activation (%) ([2]; dose 6.00E-08 M): 98%
- Human GPR40 Receptor Activation (%) ([2]; dose 6.00E-09 M): 48%
- Human GPR40 Receptor Activation (%) ([2]; dose 6.00E-10 M): 16%
- Human GPR40 Receptor Activation (%) ([2]; dose 6.00E-11 M): 3.69%
- HUMAN GPR40 Functional Assay %Act ([2]; individual replicates (n)): 122% and 82% and 93% and 96% and 99% and 104% and 130% and 79%
- Efficacy (% Activation), Human [2, 5]: (102%)
- Mouse GPR40 Receptor Activation (%) ([3]; dose 1.20E-10 M): -5.6%
- Mouse GPR40 Receptor Activation (%) ([3]; dose 1.99E-06 M): 140%
- Mouse GPR40 Receptor Activation (%) ([3]; dose 1.99E-07 M): 129%
- Mouse GPR40 Receptor Activation (%) ([3]; dose 1.99E-08 M): 125%
- Mouse GPR40 Receptor Activation (%) ([3]; dose 2.00E-09 M): 44%
- Mouse GPR40 Receptor Activation (%) ([3]; dose 5.98E-07 M): 147%
- Mouse GPR40 Receptor Activation (%) ([3]; dose 5.98E-08 M): 122%
- Mouse GPR40 Receptor Activation (%) ([3]; dose 5.99E-09 M): 87%
- Mouse GPR40 Receptor Activation (%) ([3]; dose 5.99E-10 M): 23%
- Mouse GPR40 Functional Assay %Act ([3]; individual replicates (n)): 131% and 140% and 174% and 156% and 154% and 110% and 134% and 185% and 133% and 107% and 152%
- EC50 ([3]; individual replicates (n), read-out: Mouse GPR40 Functional Assay EC50): 2.6 nM and 3.1 nM and 3.4 nM and 4.3 nM and 4.6 nM and 5.4 nM and 5.5 nM and 6.5 nM and 6.9 nM and 8.2 nM and 1.6 nM and 1.9 nM
- Efficacy (% Activation), Mouse [3, 5]: (145%)
- EC50 ([3]; mean ± SD, n = 2–20, IP accumulation, read-out: Potency [EC50, nM] ± SD, Mouse): 4.4 ± 2.1 nM
- HUMAN GPR40 Binding Data %Act ([4]; TAK875 sheet, individual replicates (n), tracer not given): 92% and 91% and 95% and 87% and 103% and 89% and 72% and 84% and 93% and 94%
- Binding Results, % in parentheses, [^3H]L-358 ([4]; WT human GPR40, maximal % (not defined)): (91%)
- binding of [^3H]L358 ([4]; human GPR40 membranes, competition binding): displace
- % Bound Normalized to 100 [4, 6]: 100.25%
- %Bound [4, 6]: 75.22%
- inhibition at 0.000318285 µM [4, 6]: 15.4%
- % Bound Normalized to 100 [4, 7]: 73.95%
- %Bound [4, 7]: 48.92%
- inhibition at 0.00100578 µM [4, 7]: 31.9%
- % Bound Normalized to 100 [4, 8]: 83.61%
- %Bound [4, 8]: 58.58%
- inhibition at 0.00317827 µM [4, 8]: 49.3%
- % Bound Normalized to 100 [4, 9]: 73.41%
- %Bound [4, 9]: 48.38%
- inhibition at 0.0100433 µM [4, 9]: 73.5%
- % Bound Normalized to 100 [4, 10]: 43.62%
- %Bound [4, 10]: 18.59%
- inhibition at 0.0317369 µM [4, 10]: 84.4%
- % Bound Normalized to 100 [4, 11]: 17.05%
- %Bound [4, 11]: -7.97%
- inhibition at 0.100289 µM [4, 11]: 102%
- % Bound Normalized to 100 [4, 12]: 19.20%
- %Bound [4, 12]: -5.83%
- inhibition at 0.316912 µM [4, 12]: 111%
- % Bound Normalized to 100 [4, 13]: 13.56%
- %Bound [4, 13]: -11.46%
- inhibition at 1.00144 µM [4, 13]: 105%
- % Bound Normalized to 100 [4, 14]: 20.27%
- %Bound [4, 14]: -4.75%
- inhibition at 3.16456 µM [4, 14]: 111%
- % Bound Normalized to 100 [4, 15]: 28.06%
- %Bound [4, 15]: 3.03%
- inhibition at 10 µM [4, 15]: 109%
